Experimental data from patent US8389523B2, “Substituted quinoxaline and an agrochemical composition thereof” (Kumiai Chemical Industry Co., Ltd., priority 2007, dated 2013).

How the values were obtained:
Format in all cases: in vivo
Design in all cases: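 grade 0 to 5 of growth suppression where 5 is 90% or more and 0 below 10%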
[1] = test system: Abutilon theophrasti medicus; assay: Herbicidal effects in upland field foliar treatment (Test Example 3); conditions: 1000 g active ingredient per hectare, 14th day after treatment, criteria of Table 138
Protocol: (§1) Test Example 3 Test on Herbicidal Effects in Upland Field Foliar Treatment A 80-cm^2 plastic pot was filled with upland field soil. Seeds of Echinochloa crus-galli (L.) P. Beauv. var. crus-galli, Abutilon theophrasti medicus and Amaranthus viridis L. were sowed, and the plants were grown for two weeks in a greenhouse. A wettable powder formulation prepared according to Preparation Example 1 was diluted with water, and was sprayed with a small sprayer to perform foliar application over the entirety of plants from the upper side, in an amount equivalent to 1000 liters per hectare, such that 1000 g of the active ingredient per hectare was applied. Thereafter, the plants were grown in a greenhouse, and on the 14th day after the treatment, the herbicidal effects were investigated according to the criteria described in the Table 138 shown above.

[2] = test system: Echinochloa crus-galli (L.) P. Beauv. var. crus-galli; assay: as above; conditions: 1000 g active ingredient per hectare, 14th day after treatment, criteria of Table 138
Protocol: as §1

Amaranthus viridis L. [3] = assay: as above; conditions: 1000 g active ingredient per hectare, 14th day after treatment, criteria of Table 138
Protocol: as §1

[4] = test system: Scirpus juncoides Roxb. var. ohwianus. T. Koyama; assay: Herbicidal effects in paddy field soil treatment (Test Example 1); conditions: paddy field soil treatment; 1000 g of the active ingredient per hectare; wettable powder added dropwise on water surface; 21st day after treatment
Protocol: (§2) Test for Herbicidal Effects in Paddy Field Soil Treatment
(§3) A 100-cm^2 plastic pot was filled with paddy field soil. After puddling and leveling, seeds of Echinochloa oryzicola Vasing, Monochoria vaginalis (Burm. f.) Presl var. plantaginea (Roxb.) Solms-Laub., and Scirpus juncoides Roxb. var. ohwianus. T. Koyama were sowed, and the soil was waterlogged to a water depth of 3 cm. On the next day, a wettable powder formulation prepared according to Preparation Example 1 was diluted with water, and was added dropwise on the water surface. The amount of application was an amount equivalent to 1000 g of the active ingredient per hectare. Thereafter, the plants were grown in a greenhouse, and on the 21st day after the treatment, the herbicidal effects were investigated according to the criteria described in Table 138.

[5] = test system: Echinochloa oryzicola Vasing; assay: as above; conditions: paddy field soil treatment; 1000 g of the active ingredient per hectare; wettable powder added dropwise on water surface; 21st day after treatment
Protocol: as §2, §3

[6] = test system: Monochoria vaginalis (Burm. f.) Presl var. plantaginea (Roxb.) Solms-Laub.; assay: as above; conditions: paddy field soil treatment; 1000 g of the active ingredient per hectare; wettable powder added dropwise on water surface; 21st day after treatment
Protocol: as §2, §3

[7] = test system: Abutilon theophrasti medicus; assay: Herbicidal effects in upland field soil treatment (Test Example 2); conditions: 1000 g active ingredient per hectare, 21st day after treatment, criteria of Table 138
Protocol: (§4) Test Example 2 Test on Herbicidal Effects in Upland Field Soil Treatment A 80-cm^2 plastic pot was filled with upland field soil. Seeds of Abutilon theophrasti medicus and Amaranthus viridis L. were sowed, and soil was covered. A wettable powder formulation prepared according to Preparation Example 1 was diluted with water, and was uniformly sprayed on the soil surface with a small sprayer, in an amount equivalent to 1000 liters per hectare, such that 1000 g of the active ingredient per hectare was applied. Thereafter, the plants were grown in a greenhouse, and on the 21st day after the treatment, the herbicidal effects were investigated according to the criteria described in the Table 138 shown above.

Amaranthus viridis L. [8] = assay: as above; conditions: 1000 g active ingredient per hectare, 21st day after treatment, criteria of Table 138
Protocol: as §4

| SMILES | herbicidal effect (index) on Abutilon theophrasti medicus [1] | herbicidal effect (index) on Echinochloa crus-galli (L.) P. Beauv. var. crus-galli [2] | herbicidal effect (index) on Amaranthus viridis L. (Amaranthus viridis L. [3]) | Herbicidal effects index, Scirpus juncoides Roxb. var. ohwianus. T. Koyama [4] | Herbicidal effects index, Echinochloa oryzicola Vasing [5] | Herbicidal effects index, Monochoria vaginalis (Burm. f.) Presl var. plantaginea (Roxb.) Solms-Laub. [6] | herbicidal effect (index) on Abutilon theophrasti medicus [7] | herbicidal effect (index) on Amaranthus viridis L. (Amaranthus viridis L. [8]) |
| --- | --- | --- | --- | --- | --- | --- | --- | --- |
| CCCCCCn1c(=O)c(C(=O)C2=C(O)CCCC2=O)nc2ccccc21 [Compound I-22] | 5 | 4 | 5 | 5 | 5 | 5 | – | – |
| CSCCn1c(=O)c(C(=O)C2=C(O)CCCC2=O)nc2ccccc21 [Compound I-91] | 5 | 5 | 5 | 5 | 5 | 5 | – | – |
| CS(=O)(=O)CCn1c(=O)c(C(=O)C2=C(O)CCCC2=O)nc2ccccc21 [Compound I-92] | 5 | 5 | 5 | 5 | 4 | 5 | – | – |
| CN(C)C(=O)Cn1c(=O)c(C(=O)C2=C(O)CCCC2=O)nc2ccccc21 [Compound I-100] | 4 | 5 | 5 | – | – | – | – | – |
| C#CCn1c(=O)c(C(=O)C2=C(O)CCCC2=O)nc2ccccc21 [I-35] | 5 | 4 | 5 | 5 | 5 | 5 | – | – |
| C[S+]([O-])CCOCn1c(=O)c(C(=O)C2=C(O)CCCC2=O)nc2ccccc21 (stereo not drawn) [I-67] | 5 | 4 | 5 | 5 | 4 | 5 | – | – |
| O=C1CCCC(O)=C1C(=O)c1nc2ccccc2n(Cc2ccccc2Cl)c1=O [I-111] | 5 | 5 | 5 | 5 | 5 | 5 | – | – |
| O=C1CCCC(O)=C1C(=O)c1nc2ccccc2n(Cc2cccc(Cl)c2)c1=O [I-112] | 5 | 4 | 5 | 5 | 5 | 5 | – | – |
| O=C1CCCC(O)=C1C(=O)c1nc2ccccc2n(C2CCSC2)c1=O (stereo not drawn) [I-136] | 5 | 4 | 5 | – | – | – | – | – |
| O=C1CCCC(O)=C1C(=O)c1nc2ccccc2n(C2CCS(=O)(=O)C2)c1=O (stereo not drawn) [I-137] | 5 | 4 | 5 | 5 | 5 | 5 | – | – |
| CSc1ccc2nc(C(=O)C3=C(O)CCCC3=O)c(=O)n(C)c2c1 [I-243] | 5 | 5 | 5 | – | – | – | – | – |
| Cn1c(=O)c(C(=O)C2=C(O)CCCC2=O)nc2ccc(S(C)(=O)=O)cc21 [I-247] | 5 | 4 | 5 | – | – | – | – | – |
| COc1c(F)cc(-n2c(=O)c(C(=O)C3=C(O)CCCC3=O)nc3c(F)cccc32)cc1F [II-235] | – | – | – | 5 | 4 | 5 | 4 | 5 |
| O=C1CCCC(O)=C1C(=O)c1nc2c(F)cccc2n(-c2ccc3c(c2)OCCO3)c1=O [II-236] | – | – | – | 5 | 4 | 5 | 4 | 5 |
| O=C1CCCC(O)=C1C(=O)c1nc2cc(F)ccc2n(-c2ccc3c(c2)OCCO3)c1=O [II-240] | – | – | – | 5 | 4 | 5 | 5 | 5 |
| COc1ccc(-n2c(=O)c(C(=O)C3=C(O)CCCC3=O)nc3c(C)cccc32)cc1 [II-245] | – | – | – | 5 | 5 | 5 | 5 | 5 |
| COc1ccc(-n2c(=O)c(C(=O)C3=C(O)CCCC3=O)nc3ccc(C)cc32)cc1 [II-247] | – | – | – | 5 | 4 | 5 | 5 | 5 |
| COc1ccc(-n2c(=O)c(C(=O)C3=C(O)CCCC3=O)nc3c(F)cc(F)cc32)cc1 [II-259] | – | – | – | 5 | 4 | 5 | 5 | 5 |
| COc1ccc(-n2c(=O)c(C(=O)C3=C(O)CCCC3=O)nc3c(Cl)cccc32)cc1F [II-301] | – | – | – | 5 | 5 | 5 | 5 | 5 |
| COc1ccc2nc(C(=O)C3=C(O)CCCC3=O)c(=O)n(-c3ccc(C)cc3)c2c1 [II-306] | – | – | – | 5 | 5 | 5 | 5 | 5 |
| CSCn1c(=O)c(C(=O)C2=C(O)CCCC2=O)nc2cccnc21 [III-70] | – | – | – | 5 | 4 | 5 | 5 | 5 |
